Legend:
[1] = target: T1, full-length human CSNK1A1 (Homo sapiens, UniProt P48729); assay: CSNK1A1 High ATP Assay (ADP-Glo, 1 mM ATP); assay type: biochemical; conditions: Table 3, read-out: CSNK1A1 high ATP assay IC50 [mol/l] (median);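 also: 30 min kinase reaction at 22 °C with 100 µM peptide substrate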
T1 construct: N-terminal Glutathion-S-Transferase (GST) and full-length human CSNK1A1; purchased Life Technologies PV4174; host or cells: baculovirus infected insect cells
Method in brief: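 GST-tagged full-length human CSNK1A1 from baculovirus-infected insect cells (typically about 0.4 ng/μL), pre-incubated with compound 15 min at 22 °C. Reaction with biotinylated peptide biotin-Ahx-KRRRAL-pS-VASLPGL at 1 mM ATP. ADP formed read by ADP-Glo luminescence.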

full-length human CSNK1D = target: T2, full-length human CSNK1D (Homo sapiens, UniProt P48730); assay: CSNK1D Assay (ADP-Glo, 1 μM ATP); assay type: biochemical; conditions: Table 3, read-out: CSNK1D IC50 [mol/l] (median)
T2 construct: N-terminal Glutathion-S-Transferase (GST) and full-length human CSNK1D; purchased Life Technologies PV3665; host or cells: baculovirus infected insect cells
Method in brief: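 Enzyme is N-terminal GST-tagged full-length human CSNK1D from baculovirus-infected insect cells (typically about 0.5 ng/μL), with a biotinylated peptide substrate and 1 μM ATP. Compound pre-incubated 15 min at 22° C in HEPES pH 7.5 buffer; ADP formed is read by ADP-Glo luminescence.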

T1 sequence (P48729 whole entry): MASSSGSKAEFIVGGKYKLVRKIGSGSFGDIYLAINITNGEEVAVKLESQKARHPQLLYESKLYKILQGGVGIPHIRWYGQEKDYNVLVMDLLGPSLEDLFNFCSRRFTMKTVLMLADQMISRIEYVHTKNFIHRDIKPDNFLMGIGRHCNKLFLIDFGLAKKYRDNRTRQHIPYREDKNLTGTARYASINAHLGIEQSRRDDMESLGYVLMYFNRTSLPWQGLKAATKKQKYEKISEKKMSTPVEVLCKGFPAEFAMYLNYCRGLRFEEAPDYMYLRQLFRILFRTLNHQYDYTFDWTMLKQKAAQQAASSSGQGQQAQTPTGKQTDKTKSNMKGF
T2 sequence (P48730 whole entry): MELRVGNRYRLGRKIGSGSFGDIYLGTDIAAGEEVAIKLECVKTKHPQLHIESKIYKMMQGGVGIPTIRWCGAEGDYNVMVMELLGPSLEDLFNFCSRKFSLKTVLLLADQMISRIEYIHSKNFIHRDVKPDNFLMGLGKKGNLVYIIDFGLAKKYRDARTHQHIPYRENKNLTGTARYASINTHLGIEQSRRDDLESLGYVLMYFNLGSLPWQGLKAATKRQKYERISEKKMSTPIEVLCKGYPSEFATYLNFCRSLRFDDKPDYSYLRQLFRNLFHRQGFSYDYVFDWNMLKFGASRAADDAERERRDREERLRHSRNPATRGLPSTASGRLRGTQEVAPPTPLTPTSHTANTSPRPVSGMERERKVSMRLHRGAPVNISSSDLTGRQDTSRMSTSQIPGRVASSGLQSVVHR

Compound	IC50 [1] [µM]	IC50 (full-length human CSNK1D) [µM]
Cc1cc(F)nc2c(-c3ccccn3)c(-c3ccnc(NC(=O)C(CC(F)F)c4ccc(F)cc4)c3)[nH]c12 (racemic) [Example 36, (rac)-4,4-difluoro-N-{4-[5-fluoro-7-methyl-3-(pyridin-2-yl)-1H-pyrrolo[3,2-b]pyridin-2-yl]pyridin-2-yl}-2-(4-fluorophenyl)butanamide]	0.0214	0.0419
O=C(Nc1cc(-c2[nH]c3nccnc3c2-c2ccccn2)ccn1)C(CC(F)F)c1ccc(F)cc1 (racemic) [Example 31, (2RS)-4,4-difluoro-2-(4-fluorophenyl)-N-{4-[7-(pyridin-2-yl)-5H-pyrrolo[2,3-b]pyrazin-6-yl]pyridin-2-yl}butanamide]	0.00304	0.00781
O=C(Nc1cc(-c2[nH]c3c(C4CCCO4)cc(F)nc3c2-c2ccccn2)ccn1)C(CC(F)F)c1ccc(F)cc1 (single isomer, unassigned) [Example 118, (2R or S)-4,4-difluoro-N-(4-{5-fluoro-7-[(2R or S)-oxolan-2-yl]-3-(pyridin-2-yl)-1H-pyrrolo[3,2-b]pyridin-2-yl}pyridin-2-yl)-2-(4-fluorophenyl)butanamide]	6.66	0.125
O=C(Nc1cc(-c2[nH]c3c(OCC(F)(F)F)ncnc3c2-c2ccccn2)ccn1)C(CC(F)(F)F)c1ccc(F)cc1 (single isomer, unassigned) [Example 127, (2R or S)-4,4,4-trifluoro-2-(4-fluorophenyl)-N-{4-[7-(pyridin-2-yl)-4-(2,2,2-trifluoroethoxy)-5H-pyrrolo[3,2-d]pyrimidin-6-yl]pyridin-2-yl}butanamide]	> 20	0.0881
O=C(Nc1cc(-c2[nH]c3ccc(F)nc3c2-c2ccccn2)ccn1)[C@H](CC(F)F)c1ccc(F)cc1 (single isomer, unassigned) [Example 3]	0.849	0.0201
O=C(Nc1cc(-c2[nH]c3c(CC4CC4)cc(F)nc3c2-c2ccccn2)ccn1)C(CC(F)F)c1ccc(F)cc1 (single isomer, unassigned) [Example 48, (2R or S)—N-{4-[7-(cyclopropylmethyl)-5-fluoro-3-(pyridin-2-yl)-1H-pyrrolo[3,2-b]pyridin-2-yl]pyridin-2-yl}-4,4-difluoro-2-(4-fluorophenyl)butanamide]	0.00991	0.00699
Cc1cc2[nH]c(-c3ccnc(NC(=O)C(CC(F)F)c4ccc(F)cc4)c3)c(-c3ccccn3)c2nc1F (racemic) [Example 33, (rac)-4,4-difluoro-N-{4-[5-fluoro-6-methyl-3-(pyridin-2-yl)-1H-pyrrolo[3,2-b]pyridin-2-yl]pyridin-2-yl}-2-(4-fluorophenyl)butanamide]	0.0195	0.0373
O=C(Nc1cc(-c2[nH]c3c(OCC(F)(F)F)ncnc3c2-c2ccccn2)ccn1)C(CC(F)(F)F)c1ccc(F)cc1 (single isomer, unassigned) [Example 126, (2R or S)-4,4,4-trifluoro-2-(4-fluorophenyl)-N-{4-[7-(pyridin-2-yl)-4-(2,2,2-trifluoroethoxy)-5H-pyrrolo[3,2-d]pyrimidin-6-yl]pyridin-2-yl}butanamide]	0.02	0.00784
Cc1cc2[nH]c(-c3ccnc(NC(=O)C(CC(F)F)c4ccc(F)cc4)c3)c(-c3ccccn3)c2nc1F (single isomer, unassigned) [Example 34, 4,4-difluoro-N-{4-[5-fluoro-6-methyl-3-(pyridin-2-yl)-1H-pyrrolo[3,2-b]pyridin-2-yl]pyridin-2-yl}-2-(4-fluorophenyl)butanamide]	0.00379	0.00686
COc1cc(F)nc2c(-c3ccccn3)c(-c3ccnc(NC(=O)C(CC(F)F)c4ccc(F)cc4)c3)[nH]c12 (racemic) [Example 39, (rac)-4,4-difluoro-N-{4-[5-fluoro-7-methoxy-3-(pyridin-2-yl)-1H-pyrrolo[3,2-b]pyridin-2-yl]pyridin-2-yl}-2-(4-fluorophenyl)butanamide]	0.019	0.0402

Reference: patent US12692261B2, “Substituted heterocyclic compounds and therapeutic uses thereof” (Bayer Aktiengesellschaft, priority 2020, dated 2026)
